# Assay results reported in patent US20240246964A1 (Arbutus Biopharma Corporation, priority 2021, published 2024).
# Biological target: human PD-L1 (Homo sapiens (Human), UniProt Q9NZQ7)
# Assay: T cell activation luciferase reporter cell culture system (T Cell Activation Assay)
# Type: cell-based
# Conditions: luciferase reporter assay; PD-L1 aAPC/CHO-K1 cells with PD-1 effector Jurkat T cells
# human PD-L1, sequence (Q9NZQ7 19-290): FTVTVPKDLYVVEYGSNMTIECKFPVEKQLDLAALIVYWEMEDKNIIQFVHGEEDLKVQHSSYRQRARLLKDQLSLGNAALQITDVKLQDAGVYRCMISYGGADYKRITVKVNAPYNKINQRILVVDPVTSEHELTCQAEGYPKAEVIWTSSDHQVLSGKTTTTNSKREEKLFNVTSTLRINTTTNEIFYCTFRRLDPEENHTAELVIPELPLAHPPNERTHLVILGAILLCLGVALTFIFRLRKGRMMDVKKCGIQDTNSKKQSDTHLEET
row,Compound,EC50 [nM]
1,"COc1cc(-c2ccnc(-c3cccc(-c4ccc(CN5CC6(CNC(=O)C6)C5)c(OC)n4)c3Cl)c2Cl)ccc1CN1CC2(CNC(=O)C2)C1 [Example 622, 2-(4-(3-Chloro-2-(2-chloro-3-(6-methoxy-5-((7-oxo-2,6-diazaspiro[3.4]octan-2-yl)methyl)pyridin-2-yl)phenyl)pyridin-4-yl)-2-methoxybenzyl)-2,6-diazaspiro[3.4]octan-7-one]",216
2,"COc1nc(-c2nccc(-c3cccc(NC(=O)c4cn(C)c(=O)n(C)c4=O)c3Cl)c2Cl)ccc1CNC[C@@H]1CCC(=O)N1 [Example 738, (S)—N-(2-Chloro-3-(3-chloro-6′-methoxy-5′-((((5-oxopyrrolidin-2-yl)methyl)amino)methyl)-[2,2′-bipyridin]-4-yl)phenyl)-1,3-dimethyl-2,4-dioxo-1,2,3,4-tetrahydropyrimidine-5-carboxamide]",272
3,"COc1cc(-c2nccc(-c3cccc(-c4ccc(CNC5CCN(C(C)=O)CC5)c(OC)n4)c3C#N)c2Cl)ccc1CNC1CCN(C(C)=O)CC1 [Cmpd 615, 2-(2-(4-(((1-acetylpiperidin-4-yl)amino)methyl)-3-methoxyphenyl)-3-chloropyridin-4-yl)-6-(5-(((1-acetylpiperidin-4-yl)amino)methyl)-6-methoxypyridin-2-yl)benzonitrile]",272
4,"COc1cc(-c2nccc(-c3cccc(-c4ccc(CNC5CCN(C(C)=O)CC5)c(OC)n4)c3Cl)c2Cl)ccc1CNC1CCN(C(=O)C(C)C)CC1 [Example 371, 1-(4-((4-(4-(3-(5-(((1-acetylpiperidin-4-yl)amino)methyl)-6-methoxypyridin-2-yl)-2-chlorophenyl)-3-chloropyridin-2-yl)-2-methoxybenzyl)amino)piperidin-1-yl)-2-methylpropan-1-one]",48.7
5,"COc1cc(-c2nccc(-c3cccc(-c4ccc(CN5CC6(C5)CN(C(C)=O)C6)c(OC)n4)c3Cl)c2C)ccc1CN1CC2(C1)CN(C(C)=O)C2 [Example 369, 1-(6-((6-(3-(2-(4-((6-Acetyl-2,6-diazaspiro[3.3]heptan-2-yl)methyl)-3-methoxyphenyl)-3-methylpyridin-4-yl)-2-chlorophenyl)-2-methoxypyridin-3-yl)methyl)-2,6-diazaspiro[3.3]heptan-2-yl)ethan-1-one]",369
6,"COc1nc(-c2cccc(-c3ccnc(-c4ccc5c(c4)CCC[C@H]5NC[C@@H]4CCC(=O)N4)c3Cl)c2Cl)ccc1CN[C@H]1CCOC1=O [Example 257, (S)-5-((((R)-6-(3-Chloro-4-(2-chloro-3-(6-methoxy-5-((((S)-2-oxotetrahydrofuran-3-yl)amino)methyl)pyridin-2-yl)phenyl)pyridin-2-yl)-1,2,3,4-tetrahydronaphthalen-1-yl)amino)methyl)pyrrolidin-2-one]",≥ 10000
7,"COc1nc(-c2cccc(-c3ccnc(-c4cc(OC)c5nc(CN6CC(C)(O)C6)nn5c4)c3Cl)c2Cl)ccc1CNC[C@@H]1CCC(=O)N1 [Example 259, (S)-5-((((6-(2-Chloro-3-(3-chloro-2-(2-((3-hydroxy-3-methylazetidin-1-yl)methyl)-8-methoxy-[1,2,4]triazolo[1,5-a]pyridin-6-yl)pyridin-4-yl)phenyl)-2-methoxypyridin-3-yl)methyl)amino)methyl)pyrrolidin-2-one]",58.6
8,"COc1cc(-c2nccc(-c3cccc(-c4ccc(CNC5CCOCC5)c(OC)n4)c3Cl)c2Cl)ccc1CN1CC2(CNC(=O)C2)C1 [Example 506, 2-(4-(3-Chloro-4-(2-chloro-3-(6-methoxy-5-(((tetrahydro-2H-pyran-4-yl)amino)methyl)pyridin-2-yl)phenyl)pyridin-2-yl)-2-methoxybenzyl)-2,6-diazaspiro[3.4]octan-7-one]",25
9,"COc1cc(-c2nccc(-c3cccc(-c4ccc(CNC[C@@H]5CCC(=O)N5)c(OC)n4)c3Cl)c2Cl)ccc1CNCC(=O)OC(C)C [Cmpd 108, isopropyl (S)-(4-(3-chloro-4-(2-chloro-3-(6-methoxy-5-((((5-oxopyrrolidin-2-yl)methyl)amino)methyl)pyridin-2-yl)phenyl)pyridin-2-yl)-2-methoxybenzyl)glycinate]",140
10,"COc1nc(-c2cncc(-c3cccc(NC(=O)c4cn(C)c(=O)n(C)c4=O)c3Cl)c2Cl)ccc1CN1CC2(C1)CN(C(C)=O)C2 [Compound 730, N-(3-(5-((6-Acetyl-2,6-diazaspiro[3.3]heptan-2-yl)methyl)-4′-chloro-6-methoxy-[2,3′-bipyridin]-5′-yl)-2-chlorophenyl)-1,3-dimethyl-2,4-dioxo-1,2,3,4-tetrahydropyrimidine-5-carboxamide]",1100
11,"COc1cc(-c2nccc(-c3cccc(-c4ccc5c(CNC6CCOCC6)cn(C)c5n4)c3Cl)c2Cl)ccc1CNC[C@@H]1CCC(=O)N1 [Cmpd 59, (S)-5-(((4-(3-chloro-4-(2-chloro-3-(1-methyl-3-(((tetrahydro-2H-pyran-4-yl)amino)methyl)-1H-pyrrolo[2,3-b]pyridin-6-yl)phenyl)pyridin-2-yl)-2-methoxybenzyl)amino)methyl)pyrrolidin-2-one]",50.8
12,"COc1cc(-c2nccc(-c3cccc(-c4ccc5c(CN(C)C6CCN(C(C)=O)CC6)cn(C)c5n4)c3Cl)c2Cl)ccc1CNC[C@@H]1CCC(=O)N1 [Cmpd 92, (S)-5-(((4-(4-(3-(3-(((1-acetylpiperidin-4-yl)(methyl)amino)methyl)-1-methyl-1H-pyrrolo[2,3-b]pyridin-6-yl)-2-chlorophenyl)-3-chloropyridin-2-yl)-2-methoxybenzyl)amino)methyl)pyrrolidin-2-one]",10.1
13,"CNCc1ccc(C(=O)Nc2cccc(-c3ccnc(-c4ccc(CNC[C@@H]5CCC(=O)N5)c(OC)c4)c3Cl)c2Cl)nc1 [Example 751, (S)—N-(2-Chloro-3-(3-chloro-2-(3-methoxy-4-((((5-oxopyrrolidin-2-yl)methyl)amino)methyl)phenyl)pyridin-4-yl)phenyl)-5-((methylamino)methyl)picolinamide]",5.68
14,"COc1cc(-c2nccc(-c3cccc(-c4ccc(CN5CC6(CNC(=O)C6)C5)c(OC)n4)c3Cl)c2Cl)ccc1CN[C@H]1C[C@](C)(O)C1 [Example 496, 2-((6-(2-Chloro-3-(3-chloro-2-(4-((((1r,3r)-3-hydroxy-3-methylcyclobutyl)amino)methyl)-3-methoxyphenyl)pyridin-4-yl)phenyl)-2-methoxypyridin-3-yl)methyl)-2,6-diazaspiro[3.4]octan-7-one]",29.1
15,"COc1cc(-c2nccc(-c3cccc(-c4ccc(CNCCC(=O)O)c(OC)n4)c3Cl)c2Cl)ccc1CNC1CCN(C(C)=O)CC1 [Cmpd 389, 3-(((6-(3-(2-(4-(((1-acetylpiperidin-4-yl)amino)methyl)-3-methoxyphenyl)-3-chloropyridin-4-yl)-2-chlorophenyl)-2-methoxypyridin-3-yl)methyl)amino)propanoic acid]",35.8
16,"COc1cc(-c2nccc(-c3cccc(-c4ccc5c(CNC[C@@H]6CCO6)cn(C)c5n4)c3Cl)c2Cl)ccc1CNC[C@@H]1CCC(=O)N1 [Cmpd 58, (S)-5-(((4-(3-chloro-4-(2-chloro-3-(1-methyl-3-(((((S)-oxetan-2-yl)methyl)amino)methyl)-1H-pyrrolo[2,3-b]pyridin-6-yl)phenyl)pyridin-2-yl)-2-methoxybenzyl)amino)methyl)pyrrolidin-2-one]",37.3
17,"COc1cc(-c2nccc(-c3cccc(-c4ccc(CNCCO)c(OC)n4)c3C(F)(F)F)c2Cl)ccc1CNCCO [Example 612, 2-(((6-(3-(3-Chloro-2-(4-(((2-hydroxyethyl)amino)methyl)-3-methoxyphenyl)pyridin-4-yl)-2-(trifluoromethyl)phenyl)-2-methoxypyridin-3-yl)methyl)amino)ethan-1-ol]",≥ 10000
18,"COc1cc(-c2nccc(-c3cccc(-c4ccc(CNC[C@@H]5CCC(=O)N5)c(OC)n4)c3Cl)c2Cl)ccc1CN(C)C[C@H](C)O [Cmpd 75, (S)-5-((((6-(2-chloro-3-(3-chloro-2-(4-((((S)-2-hydroxypropyl)(methyl)amino)methyl)-3-methoxyphenyl)pyridin-4-yl)phenyl)-2-methoxypyridin-3-yl)methyl)amino)methyl)pyrrolidin-2-one]",16
19,"COc1cc(-c2nccc(-c3cccc(-c4ccc(CN(C)CCO)c(OC)n4)c3Cl)c2Cl)ccc1CN(C)CCO [Cmpd 138, 2-(((6-(2-chloro-3-(3-chloro-2-(4-(((2-hydroxyethyl)(methyl)amino)methyl)-3-methoxyphenyl)pyridin-4-yl)phenyl)-2-methoxypyridin-3-yl)methyl)(methyl)amino)ethan-1-ol]",5160
20,"COc1nc(-c2ccnc(-c3cccc4c3CC[C@@H]4Nc3nc(OC)c(CNC4CCOCC4)cc3C(F)(F)F)c2Cl)ccc1CNC[C@@H]1CCC(=O)N1 [Example 634, (S)-5-((((3′-Chloro-6-methoxy-2′-((S)-1-((6-methoxy-5-(((tetrahydro-2H-pyran-4-yl)amino)methyl)-3-(trifluoromethyl)pyridin-2-yl)amino)-2,3-dihydro-1H-inden-4-yl)-[2,4′-bipyridin]-5-yl)methyl)amino)methyl)pyrrolidin-2-one]",110
21,"COc1cc(-c2ncnc(-c3cccc(-c4ccc(CN5CCN(C(C)=O)CC5)c(OC)n4)c3Cl)c2Cl)ccc1CN1CCN(C(C)=O)CC1 [Example 562, 1-(4-((6-(3-(6-(4-((4-acetylpiperazin-1-yl)methyl)-3-methoxyphenyl)-5-chloropyrimidin-4-yl)-2-chlorophenyl)-2-methoxypyridin-3-yl)methyl)piperazin-1-yl)ethan-1-one]",≥ 10000
22,"COc1nc(-c2cccc(-c3ccnc(-c4cc5c(=O)n(C)c(CN6CC(C)(O)C6)nn5c4)c3Cl)c2Cl)ccc1CN[C@H]1C[C@](C)(O)C1 [Example 232, 6-(3-Chloro-4-(2-chloro-3-(5-((((1r,3r)-3-hydroxy-3-methylcyclobutyl)amino)methyl)-6-methoxypyridin-2-yl)phenyl)pyridin-2-yl)-2-((3-hydroxy-3-methylazetidin-1-yl)methyl)-3-methylpyrrolo[2,1-f][1,2,4]triazin-4(3H)-one]",102
